Laboratory results from US8247211B2, “Glycopeptide antibiotics” (American Cyanamid Company, priority 2001, dated 2012).
In brackets after ≈: the same amount, converted by molar mass.

Tests used:
Assay in all cases: In vitro antibacterial evaluation: minimum inhibitory concentration (MIC), broth dilution method
Format in all cases: cell-based
[1] = tested on: Streptococcus sp.
Procedure: (§1) The minimum inhibitory concentration (MIC), the lowest concentration of the antibiotic which inhibits growth of the test organism, is determined by the broth dilution method using Muller-Hinton II […] (Baltimore Biological Laboratories) following the recommendations of the National Committee for Clinical Laboratory Standards [Methods for dilution antimicrobial susceptibility tests for bacteria that grow aerobically, approved standard M7-A2, National Committee for Clinical Laboratory Standards, Villanova, Pa].
(§2) An inoculum level of 5×10^5 CFU/mL, and a range of antibiotic concentrations (64-0.06 μg/mL) is used. […] The test organisms include a spectrum of Gram-positive bacteria comprised of Staphylococcus sp., Streptococcus sp. and Enterococcus sp. These organisms include recent clinical isolates that are resistant to methicillin, penicillin and/or vancomycin.

[2] = tested on: Escherichia coli
Procedure: as §1, §2

[3] = tested on: Enterococcus sp.
Procedure: as §1, §2

[4] = tested on: Staphylococcus sp.; conditions: broth dilution, 18 hours at 35° C.
Procedure: as §1, §2

Question: Which results are given for CCCCCCN=C1NCC(C(O)C2NC(=O)C(C(O)C3CNC(=N)N3)NC(=O)C(Cc3ccc(OC4OC(CO)C(OC5OC6COC7(OC6C(O)C5O)C5CC6CC(C5)CC7C6)C(O)C4O)cc3)NC(=O)C(C(C)c3ccccc3)NC(=O)CNC(=O)C(CO)NC2=O)N1C1OC(CO)C(O)C(O)C1O (stereo not shown) [Example 84]?
Answer: MIC Streptococcus agalactiae (GC 4564) ([1]; Streptococcus agalactiae (GC 4564), broth dilution, 18 hours at 35° C.): 1 µg/mL (≈ 0.662 µM); MIC Streptococcus pneumoniae (ATCC 6301) ([1]; Streptococcus pneumoniae (ATCC 6301), broth dilution, 18 hours at 35° C.): 1 µg/mL (≈ 0.662 µM); MIC Streptococcus pneumoniae (GC 1894) ([1]; Streptococcus pneumoniae (GC 1894), broth dilution, 18 hours at 35° C.): 0.12 µg/mL (≈ 0.0794 µM); MIC Streptococcus pneumoniae (GC 4565) ([1]; Streptococcus pneumoniae (GC 4565), broth dilution, 18 hours at 35° C.): 1 µg/mL (≈ 0.662 µM); MIC Streptococcus pyogenes (GC 4563) ([1]; Streptococcus pyogenes (GC 4563), broth dilution, 18 hours at 35° C.): 0.5 µg/mL (≈ 0.331 µM); MIC Streptococcus pneumoniae (ATCC 6301) ([1]; strain ATCC 6301): 1 µg/mL (≈ 0.662 µM); MIC Streptococcus pneumoniae (GC 1894) ([1]; strain GC 1894): 0.12 µg/mL (≈ 0.0794 µM); MIC Streptococcus pyogenes (GC 4563) ([1]; strain GC 4563): 0.5 µg/mL (≈ 0.331 µM); MIC Streptococcus agalactiae (GC 4564) ([1]; strain GC 4564): 1 µg/mL (≈ 0.662 µM); MIC Streptococcus pneumoniae (GC 4565) ([1]; strain GC 4565): 1 µg/mL (≈ 0.662 µM); MIC Escherichia coli (ATCC 25922) ([2]; strain ATCC 25922): >64 µg/mL; MIC Escherichia coli (GC 4559) ([2]; strain GC 4559): 64 µg/mL (≈ 42.3 µM); MIC Escherichia coli (GC 4560) ([2]; strain GC 4560): 4 µg/mL (≈ 2.65 µM); MIC Enterococcus faecalis (GC 2242) ([3]; Enterococcus faecalis (GC 2242), broth dilution, 18 hours at 35° C.): 8 µg/mL (≈ 5.29 µM); MIC Enterococcus faecalis (GC 2691) ([3]; Enterococcus faecalis (GC 2691), broth dilution, 18 hours at 35° C.): 8 µg/mL (≈ 5.29 µM); MIC Enterococcus faecalis (GC 3059) ([3]; Enterococcus faecalis (GC 3059), broth dilution, 18 hours at 35° C.): 8 µg/mL (≈ 5.29 µM); MIC Enterococcus faecalis (ATCC 29212) ([3]; strain ATCC 29212): 8 µg/mL (≈ 5.29 µM); MIC Enterococcus faecalis (GC 2242) ([3]; strain GC 2242): 8 µg/mL (≈ 5.29 µM); MIC Enterococcus faecium (GC 2243) ([3]; strain GC 2243): 4 µg/mL (≈ 2.65 µM); MIC Enterococcus faecalis (GC 2691) ([3]; strain GC 2691): 8 µg/mL (≈ 5.29 µM); MIC Enterococcus faecalis (GC 3059) ([3]; strain GC 3059): 8 µg/mL (≈ 5.29 µM); MIC Enterococcus faecalis (GC 4552) ([3]; strain GC 4552): 8 µg/mL (≈ 5.29 µM); MIC Enterococcus faecalis (GC 4553) ([3]; strain GC 4553): 8 µg/mL (≈ 5.29 µM); MIC Enterococcus faecalis (GC 4554) ([3]; strain GC 4554): 16 µg/mL (≈ 10.6 µM); MIC Enterococcus faecium (GC 4556) ([3]; strain GC 4556): 8 µg/mL (≈ 5.29 µM); MIC Enterococcus faecium (GC 4557) ([3]; strain GC 4557): 1 µg/mL (≈ 0.662 µM); MIC Enterococcus avium (GC 4558) ([3]; strain GC 4558): 8 µg/mL (≈ 5.29 µM); MIC Enterococcus faecalis (GC 6189) ([3]; strain GC 6189): 8 µg/mL (≈ 5.29 µM); MIC Staphylococcus aureus (ATCC 29213) [4]: 8 µg/mL (≈ 5.29 µM); MIC Staphylococcus aureus (GC 1131) [4]: 8 µg/mL (≈ 5.29 µM); MIC Staphylococcus aureus (GC 3051) [4]: 8 µg/mL (≈ 5.29 µM); MIC Staphylococcus aureus (GC 3053) [4]: 8 µg/mL (≈ 5.29 µM); MIC Staphylococcus aureus (GC 4541) [4]: 4 µg/mL (≈ 2.65 µM); MIC Staphylococcus aureus (GC 4542) [4]: 8 µg/mL (≈ 5.29 µM); MIC Staphylococcus aureus (GC 4544) [4]: 8 µg/mL (≈ 5.29 µM); MIC Staphylococcus aureus (GC 4545) [4]: 8 µg/mL (≈ 5.29 µM); MIC Staphylococcus aureus-SMITH (GC 4543) ([4]; strain SMITH GC 4543): 4 µg/mL (≈ 2.65 µM)
